Experiment: solvent given as SMILES
[1] = in c1cc(-n2c3ccccc3c3ccccc32)cc(-n2c3ccccc3c3ccccc32)c1

`Cc1nc(-c2cc(C(F)(F)F)ccc2O)n2c1CCCC2` showed a fluorescence lifetime (in ClCCl) of 3.7 ns.
In the case of `Nc1ccc2cn[nH]c2c1`, the fluorescence lifetime (in C1CCCCC1) was 4 ns, the fluorescence lifetime (in CC#N) was 5.4 ns and the fluorescence lifetime (in CO) was 3.1 ns. For the same compound, the fluorescence lifetime (in O) was 4.4 ns.
With `COCc1ncc(-c2c3ccccc3c(-c3cnc(COC)nc3)c3ccccc23)cn1` the fluorescence lifetime (in CCO) was 6.1 ns and the fluorescence lifetime (in ClCCl) was 6.5 ns.
Work on `O=c1c2ccccc2n2c3ccc(-c4ccccc4)cc3c(=O)c3cccc1c32` yielded a fluorescence lifetime (in c1cc(-c2cccc(-n3c4ccccc4c4ccccc43)c2)cc(-n2c3ccccc3c3ccccc32)c1) of 5.5 ns and a fluorescence lifetime [1] of 5.5 ns.
Compound `CC1(C)c2ccccc2N(c2ccc(C(=O)c3cc(C(=O)c4ccc(N5c6ccccc6C(C)(C)c6ccccc65)cc4)cc(C(=O)c4ccc(N5c6ccccc6C(C)(C)c6ccccc65)cc4)c3)cc2)c2ccccc21` has a fluorescence lifetime (in Cc1ccccc1) of 16.7 ns and a fluorescence lifetime (in c1ccc2c(c1)c1ccccc1n2-c1ccc(-c2ccc(-n3c4ccccc4c4ccccc43)cc2)cc1) of 25.8 ns.
`c1ccc(-c2nn(-c3ccccc3)c3nc4ccccc4cc23)cc1` showed a fluorescence lifetime (in C1CCCCC1) of 17.9 ns, a fluorescence lifetime (in C1CCOC1) of 21.2 ns and a fluorescence lifetime (in CC#N) of 25.1 ns. For the same compound, the fluorescence lifetime (in CC(C)=O) was 23.4 ns, the fluorescence lifetime (in CCCCCl) was 19.7 ns and the fluorescence lifetime (in CCCCOCCCC) was 18.6 ns. For the same compound, the fluorescence lifetime (in CN(C)C=O) was 22 ns.
In the case of `CC(C)c1cc(C(C)C)c(B2c3ccccc3Oc3cc(N4c5ccccc5C(C)(C)c5ccccc54)ccc32)c(C(C)C)c1`, the fluorescence lifetime (in Cc1ccccc1) was 33 ns.
Work on `CCCCCCCCCCCCOc1cc2c3c(ccc4c5c(SCCCCCCCCCCCC)cc6c7c(ccc(c1c34)c75)C(=O)N(C1CCCCC1)C6=O)C(=O)N(C1CCCCC1)C2=O` yielded a fluorescence lifetime (in ClC(Cl)Cl) of 7.8 ns.
Work on `CCOC(=O)c1ccccc1-c1c2ccc(=O)cc-2oc2cc(OC(=O)[C@H](CSCc3ccc(C)cc3)NC(=O)OC(C)(C)C)ccc12` yielded a fluorescence lifetime (in C1CCOC1) of 2.49 ns, a fluorescence lifetime (in CC#N) of 2.97 ns and a fluorescence lifetime (in CCO) of 3.29 ns. For the same compound, the fluorescence lifetime (in CS(C)=O) was 4.06 ns.
Compound `CN(C)c1ccc(/C=C/c2ccc(-c3nc(C#N)c(C#N)n3C)cc2)cc1` has a fluorescence lifetime (in C1CCCCC1) of 0.7 ns and a fluorescence lifetime (in ClC(Cl)Cl) of 0.7 ns.
Compound `c1ccc(C2=C(c3ccccc3)[Si](c3ccccc3)(c3ccccc3)c3ccccc32)cc1` has a fluorescence lifetime (in C1CCOC1) of 1.98 ns.
Compound `CC(C)(C)NC(=O)c1ccc2ccc3cccc4ccc1c2c34` has a fluorescence lifetime (in ClC(Cl)Cl) of 7.55 ns.
`Cn1c(=O)c(/N=N/c2ccc(S(=O)(=O)O)c3ccccc23)c(O)c2ccccc21` gave a fluorescence lifetime (in CS(C)=O) of 0.05 ns.
`CC(C)(C)c1ccc2c(c1)c1cc(C(C)(C)C)ccc1n2-c1cccc(-n2c3ccc(C(C)(C)C)cc3c3cc(C(C)(C)C)ccc32)c1C#N` gave a fluorescence lifetime (in Cc1ccccc1) of 5 ns and a fluorescence lifetime (in O=P(c1ccccc1)(c1ccccc1)c1ccccc1Oc1ccccc1P(=O)(c1ccccc1)c1ccccc1) of 6.8 ns.
`CCCCCCN1C(=O)c2cccc3c(-c4ccc(OC)s4)ccc(c23)C1=O` showed a fluorescence lifetime (in ClC(Cl)Cl) of 3.88 ns.
In the case of `CC(C)(C)c1ccc2c(c1)c1cc(C(C)(C)C)ccc1n2-c1ccccc1-c1nccnc1C#N`, the fluorescence lifetime [1] was 9.7 ns.
For `CCN(CC)c1ccc2c(c1)oc(=O)c1c(C)nc3c(cnn3-c3ccccc3)c12`, the fluorescence lifetime (in ClCCl) was 2.72 ns.
In the case of `CC1(C)c2ccccc2N(c2ccc(-c3n[n+]4c(o3)-c3ccccc3O[B-]4(F)F)cc2)c2ccccc21`, the fluorescence lifetime (in ClCCl) was 22 ns.
Compound `CC[N+](CC)=c1ccc2c(-c3ccccc3C(=O)O)c3c(=O)oc4c5c6c(cc4c3oc-2c1)CCCN6CCC5` has a fluorescence lifetime (in CCO) of 0.47 ns, a fluorescence lifetime (in ClC(Cl)Cl) of 2.87 ns and a fluorescence lifetime (in O) of 0.16 ns.
Compound `Cc1ccsc1-c1ccc(-c2ccc(-c3sccc3C)s2)s1` has a fluorescence lifetime (in CCC(C)C) of 0.43 ns.
Work on `COCCOCCOCCOCC(COCCOCCOCCOC)Oc1cc(/C=C/c2ccc(C=C(C#N)C#N)cc2)c(OC(COCCOCCOCCOC)COCCOCCOCCOC)cc1/C=C/c1ccc(C=C(C#N)C#N)cc1` yielded a fluorescence lifetime (in ClCCl) of 1.7 ns.
`O=C1OC(=O)c2ccc(N(c3ccccc3)c3ccc4ccccc4c3)c3cccc1c23` showed a fluorescence lifetime (in C1CCOC1) of 1.09 ns, a fluorescence lifetime (in CCCCCC) of 8.42 ns and a fluorescence lifetime (in c1ccccc1) of 8.55 ns.
For `Cc1cc(C)c(C2=C3C=CC=[N+]3[B-]3(F)Oc4cc(O)cc5c6ccc(C)cc6c6cc2n3c6c45)c(C)c1` (configuration not stated), the fluorescence lifetime (in ClC(Cl)Cl) was 4 ns.
In the case of `CC(C)[Si](C#Cc1c2ccccc2c(C#C[Si](C(C)C)(C(C)C)C(C)C)c2nc3cc4c(cc3nc12)C1c2ccccc2C4c2ccccc21)(C(C)C)C(C)C`, the fluorescence lifetime (in CCCCCC) was 13.3 ns and the fluorescence lifetime (in ClCCl) was 18.3 ns.
In the case of `Clc1nc(Nc2ccccc2)nc(Nc2ccc3cc4ccccc4cc3c2)n1`, the fluorescence lifetime (in C1COCCO1) was 10.3 ns and the fluorescence lifetime (in CCOC(C)=O) was 6.6 ns.
In the case of `CN(C)c1ccc2c(c1)C(C)(C)C(=O)C=C2`, the fluorescence lifetime (in O) was 3.66 ns.
For `c1ccc(-c2nc(-c3ccccc3)nc(-c3ccc(-n4c5ccccc5c5cc(-n6c7ccccc7c7ccccc76)ccc54)cc3)n2)cc1`, the fluorescence lifetime (in Cc1ccccc1) was 6.5 ns.
`C[Si](C)(C)C#Cc1cccc2ccccc12` gave a fluorescence lifetime (in C1CCCCC1) of 9 ns.
With `COc1cc2c(cc1-c1ccc(N(C)C)cc1)Cc1c3c(c4c(c1-2)-c1cc(OC)c(-c2ccc(N(C)C)cc2)cc1C4)C(=O)N(CCC(C)C)C3=O` the fluorescence lifetime (in C1CCOC1) was 1.01 ns.
